Source: publication PMC9599548, “EP-Pred: A Machine Learning Tool for Bioprospecting Promiscuous Ester Hydrolases” (Biomolecules, 2022)

Assays:
Test in all cases: 4-nitrophenol release at […] nm, initial rates
Type in all cases: biochemical
Conditions in all cases: 5 mM EPPS pH 8.0, 30 °C; ester 0–0.04 mM
[1] = system: WP_089515094.1
[2] = system: WP_026140314.1
[3] = system: WP_014900537.1

Structure (SMILES): CCC(=O)Oc1ccc([N+](=O)[O-])cc1 [p-NP propionate]
- Km [1]: 23.5 ± 3.5 µM
- Km [2]: 14.5 ± 1.1 µM
- Km [3]: 16.9 ± 1.6 µM
